According to patent US20220144838A1, “Compounds as Inhibitors of Macrophage Migration Inhibitory Factor” (NANJING IMMUNOPHAGE BIOTECH CO., LTD., priority 2019, published 2022):

These compounds were tested against T1, MIF (Homo sapiens, UniProt P14174) (assay: MIF tautomerase assay using pHPP as substrate). Conditions: inhibition of the MIF enzyme in vitro; mean of multiple test results; read-out: Tautomerase Inhibition pIC50 (converted).
T1 sequence (P14174 2-115 limits assumed): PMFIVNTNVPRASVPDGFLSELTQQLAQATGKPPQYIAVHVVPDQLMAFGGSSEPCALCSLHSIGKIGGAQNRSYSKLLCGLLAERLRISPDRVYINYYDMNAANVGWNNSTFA
Assay type: biochemical
In short: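 Cell-free keto-to-enol tautomerization of pHPP, enol product detected spectrophotometrically as borate complex. Final 3 nM MIF and 1.5 mM ketonic pHPP in DPBS/boric acid buffer with 0.025% BSA and 300 μM CHAPS, pH 6.0, room temperature; initial rates from absorbance slopes give mean pIC50.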

| IC50 [nM] | SMILES |
| --- | --- |
| 10 to 97.7 | O=C(O)Cn1cnc2c(-n3nnc4c(C(=O)O)cccc43)nc(N3CCN(c4ccc(O)cc4)CC3)nc21 [Example 122, 1-(9-(carboxymethyl)-2-(4-(4-hydroxyphenyl)piperazin-1-yl)-9H-purin-6-yl)-1H-benzo[d][1,2,3]triazole-4-carboxylic acid] |
| 1000 to 9770 | CCOC(=O)Cn1cnc2c(-n3cnc4ccccc43)nc(N3CCN(c4ccc(O)cc4)CC3)nc21 [Example 40, ethyl 2-(6-(1H-benzo[d]imidazol-1-yl)-2-(4-(4-hydroxyphenyl)piperazin-1-yl)-9H-purin-9-yl)acetate] |
| 1000 to 9770 | CN1CCN(c2nc(N3CCN(c4ccc(O)cc4)CC3)nc3c2ncn3-c2ccncc2)CC1 [Example 179, 4-(4-(6-(4-methylpiperazin-1-yl)-9-(pyridin-4-yl)-9H-purin-2-yl)piperazin-1-yl)phenol] |
| 100 to 977 | O=C(O)Cn1cnc2c(-c3ccnc4[nH]ccc34)nc(N3CCN(c4ccc(O)cc4)CC3)nc21 [Example 35, 2-(2-(4-(4-hydroxyphenyl)piperazin-1-yl)-6-(1H-pyrrolo[2,3-b]pyridin-4-yl)-9H-purin-9-yl)acetic acid] |
| 100 to 977 | O=C(O)Cn1cnc2c(-n3ncc4c(Cl)cccc43)nc(N3CCN(c4ccc(O)cc4)CC3)nc21 [Example 106, 2-(6-(4-chloro-1H-indazol-1-yl)-2-(4-(4-hydroxyphenyl)piperazin-1-yl)-9H-purin-9-yl)acetic acid] |
| 100 to 977 | OCCn1cnc2c(-n3ncc4ccccc43)nc(N3CCN(c4ccc(O)cc4)CC3)nc21 [Example 3, 4-(4-(9-(2-hydroxyethyl)-6-(1H-indazol-1-yl)-9H-purin-2-yl)piperazin-1-yl)phenol] |
| 1000 to 9770 | NC(=O)Cn1cnc2c(N3CCc4ccccc43)nc(N3CCN(c4ccc(O)cc4)CC3)nc21 [Example 32, 2-(2-(4-(4-hydroxyphenyl)piperazin-1-yl)-6-(indolin-1-yl)-9H-purin-9-yl)acetamide] |
| 1000 to 9770 | Nc1nc(N2CCN(c3ccc(O)cc3)CC2)nc2c1ncn2-c1ccccc1 [Example 66, 4-(4-(6-amino-9-phenyl-9H-purin-2-yl)piperazin-1-yl)phenol] |
| 1000 to 9770 | Oc1ccc(N2CCN(c3nc(N4CCCC4)c4ncn(-c5cccnc5)c4n3)CC2)cc1 [Example 92, 4-(4-(9-(pyridin-3-yl)-6-(pyrrolidin-1-yl)-9H-purin-2-yl)piperazin-1-yl)phenol] |
| 10 to 97.7 | CCC(C(=O)O)n1cnc2c(-n3ncc4ccccc43)nc(N3CCN(c4ccc(O)cc4)CC3)nc21 (stereo not shown) [Example 127, 2-(2-(4-(4-hydroxyphenyl)piperazin-1-yl)-6-(1H-indazol-1-yl)-9H-purin-9-yl)butanoic acid] |
| 100 to 977 | COC(=O)Cn1cnc2c(-n3ncc4ccccc43)nc(N3CCN(c4ccc(O)cc4)CC3)nc21 [Example 131, methyl 2-(2-(4-(4-hydroxyphenyl)piperazin-1-yl)-6-(1H-indazol-1-yl)-9H-purin-9-yl)acetate] |
| 100 to 977 | Nc1nc(N2CCC(O)(c3ccc(O)cc3)CC2)nc2c1ncn2-c1cccnc1 [Example 208, 1-(6-amino-9-(pyridin-3-yl)-9H-purin-2-yl)-4-(4-hydroxyphenyl)piperidin-4-ol] |
| 100 to 977 | CCOC(=O)Cn1cnc2c(-n3ncc4ccccc43)nc(N3CCN(c4ccc(O)cc4)CC3)nc21 [Example 44, ethyl 2-(2-(4-(4-hydroxyphenyl)piperazin-1-yl)-6-(1H-indazol-1-yl)-9H-purin-9-yl)acetate] |
| 10 to 97.7 | O=C(O)C1CCCN1c1nc(N2CCN(c3ccc(O)cc3)CC2)nc2c1ncn2-c1ccncc1 (stereo not shown) [Example 167, (2-(4-(4-hydroxyphenyl)piperazin-1-yl)-9-(pyridin-4-yl)-9H-purin-6-yl)proline] |
| 100 to 977 | OCC(CO)n1cnc2c(N3CCc4ccccc43)nc(N3CCN(c4ccc(O)cc4)CC3)nc21 [Example 133, 2-(2-(4-(4-hydroxyphenyl)piperazin-1-yl)-6-(indolin-1-yl)-9H-purin-9-yl)propane-1,3-diol] |
| 100 to 977 | Oc1ccc(N2CCN(c3nc(NCCc4ccccc4)c4ncn(-c5cccnc5)c4n3)CC2)cc1 [Example 91, 4-(4-(6-(phenethylamino)-9-(pyridin-3-yl)-9H-purin-2-yl)piperazin-1-yl)phenol] |
| 1000 to 9770 | Cc1nc2ccccc2n1-c1nc(N2CCN(c3ccc(O)cc3)CC2)nc2c1ncn2CC(=O)O [Example 28, 2-(2-(4-(4-hydroxyphenyl)piperazin-1-yl)-6-(2-methyl-1H-benzo[d]imidazol-1-yl)-9H-purin-9-yl)acetic acid] |
| 10 to 97.7 | O=C(O)Cn1cnc2c(-n3ncc4ccccc43)nc(N3CCN(c4ccc(O)cc4)CC3)nc21 [Example 45, 2-(2-(4-(4-hydroxyphenyl)piperazin-1-yl)-6-(1H-indazol-1-yl)-9H-purin-9-yl)acetic acid] |
| > 10000 | Cc1cncc(-n2cnc3c(N)nc(N4CCN(c5ccc(O)cc5)CC4)nc32)c1 [Example 68, 4-(4-(6-amino-9-(5-methylpyridin-3-yl)-9H-purin-2-yl)piperazin-1-yl)phenol] |
| > 10000 | Cc1cc(C#N)ccc1-n1cnc2c(N)nc(N3CCN(c4ccc(O)cc4)CC3)nc21 [Example 70, 4-(6-amino-2-(4-(4-hydroxyphenyl)piperazin-1-yl)-9H-purin-9-yl)-3-methylbenzonitrile] |
| 100 to 977 | CC(CO)(CO)Nc1nc(N2CCN(c3ccc(O)cc3)CC2)nc2c1ncn2-c1ccncc1 [Example 177, 2-((2-(4-(4-hydroxyphenyl)piperazin-1-yl)-9-(pyridin-4-yl)-9H-purin-6-yl)amino)-2-methylpropane-1,3-diol] |

The next lines start with the compound.

| SMILES | IC50 [nM] |
| --- | --- |
| Oc1ccc(N2CCN(c3nc(-n4ncc5ccccc54)c4ncn(CCc5nnn[nH]5)c4n3)CC2)cc1 [Example 117, 4-(4-(9-(2-(1H-tetrazol-5-yl)ethyl)-6-(1H-indazol-1-yl)-9H-purin-2-yl)piperazin-1-yl)phenol] | 100 to 977 |
| Cc1cc(N2CCN(c3nc(-n4ncc5ccccc54)c4ncn(CCO)c4n3)CC2)ccc1O [Example 153, 4-(4-(9-(2-hydroxyethyl)-6-(1H-indazol-1-yl)-9H-purin-2-yl)piperazin-1-yl)-2-methylphenol] | 1000 to 9770 |
| O=C(O)Cn1cnc2c(-n3ncc4ccccc43)nc(N3CCN(c4ncc(O)cc4F)CC3)nc21 [Example 130, 2-(2-(4-(3-fluoro-5-hydroxypyridin-2-yl)piperazin-1-yl)-6-(1H-indazol-1-yl)-9H-purin-9-yl)acetic acid] | > 10000 |
| CS(=O)(=O)NC(=O)Cn1cnc2c(-n3ncc4ccccc43)nc(N3CCN(c4ccc(O)cc4)CC3)nc21 [Example 57, 2-(2-(4-(4-hydroxyphenyl)piperazin-1-yl)-6-(1H-indazol-1-yl)-9H-purin-9-yl)-N-(methylsulfonyl)acetamide] | 10 to 97.7 |
| CN(CC(=O)O)c1nc(N2CCN(c3ccccc3)CC2)nc2c1ncn2-c1ccncc1 [Example 180, N-methyl-N-(2-(4-phenylpiperazin-1-yl)-9-(pyridin-4-yl)-9H-purin-6-yl)glycine] | > 10000 |
| CN(CC(=O)O)c1nc(N2CCC(O)(c3ccc(O)cc3)CC2)nc2c1ncn2-c1ccncc1 [Example 205, N-(2-(4-hydroxy-4-(4-hydroxyphenyl)piperidin-1-yl)-9-(pyridin-4-yl)-9H-purin-6-yl)-N-methylglycine] | 100 to 977 |
| C=CCc1nn(-c2nc(N3CCN(c4ccc(O)cc4)CC3)nc3c2ncn3CC(=O)O)c2ccccc12 [Example 147, 2-(6-(3-allyl-1H-indazol-1-yl)-2-(4-(4-hydroxyphenyl)piperazin-1-yl)-9H-purin-9-yl)acetic acid] | 1000 to 9770 |
| O=C(O)C1CCN(c2nc(N3CCN(c4ccccc4)CC3)nc3c2ncn3-c2ccncc2)C1 (stereo not shown) [Example 182, 1-(2-(4-phenylpiperazin-1-yl)-9-(pyridin-4-yl)-9H-purin-6-yl)pyrrolidine-3-carboxylic acid] | > 10000 |
| Nc1nc(N2CC(O)(c3ccns3)C2)nc2c1ncn2-c1ccncc1 [Example 213, 1-(6-amino-9-(pyridin-4-yl)-9H-purin-2-yl)-3-(isothiazol-5-yl)azetidin-3-ol] | > 10000 |
| O=C(O)Cn1cnc2c(-n3nc(-c4nnn[nH]4)c4ccccc43)nc(N3CCN(c4ccc(O)cc4)CC3)nc21 [Example 135] | 10 to 97.7 |
| O=C(O)Cn1cnc2c(N3Cc4ccccc4C3=O)nc(N3Cc4ccccc4C3=O)nc21 [Example 27, 2-(2,6-bis(1-oxoisoindolin-2-yl)-9H-purin-9-yl)acetic acid] | > 10000 |
| Oc1ccc(N2CCN(c3nc(-n4ncc5ccccc54)c4ncn(Cc5nnn[nH]5)c4n3)CC2)cc1 [Example 17, 4-(4-(9-((1H-tetrazol-5-yl)methyl)-6-(1H-indazol-1-yl)-9H-purin-2-yl)piperazin-1-yl)phenol] | 100 to 977 |
| CCC(C(=O)O)n1cnc2c(-n3ncc4ccccc43)nc(N3CCN(c4ccc(O)cn4)CC3)nc21 (stereo not shown) [Example 142, 2-(2-(4-(5-hydroxypyridin-2-yl)piperazin-1-yl)-6-(1H-indazol-1-yl)-9H-purin-9-yl)butanoic acid] | 10 to 97.7 |
| Nc1nc(N2CCC(n3cc(C(=O)O)cn3)CC2)nc2c1ncn2-c1ccncc1 [Example 195, 1-(1-(6-amino-9-(pyridin-4-yl)-9H-purin-2-yl)piperidin-4-yl)-1H-pyrazole-4-carboxylic acid] | > 10000 |
| O=C(O)Cn1cnc2c(-n3ncc4ccccc43)nc(N3CCC(O)(c4ccc(F)cc4)CC3)nc21 [Example 223, 2-(2-(4-(4-fluorophenyl)-4-hydroxypiperidin-1-yl)-6-(1H-indazol-1-yl)-9H-purin-9-yl)acetic acid] | 100 to 977 |
| Nc1nc(N2CC=C(c3ccc(O)cc3)CC2)nc2c1ncn2-c1ccncc1 [Example 156, 4-(1-(6-amino-9-(pyridin-4-yl)-9H-purin-2-yl)-1,2,3,6-tetrahydropyridin-4-yl)phenol] | > 10000 |
